Experimental data as given in patent US20230381271A1, “PROTOCOL TO MINIMIZE CALCINEURIN INHIBITOR NEPHROTOXICITY” (Aurinia Pharmaceuticals Inc., priority 0001, published 2023).
“Also recorded” adds a separate entry of the source.

Legend:
mouse kidney = test: MALDI-MSI localization in mouse kidney after IV administration; details: tail vein injection of parent drug, compared between voclosporin and cyclosporine A species
Method: Kidneys were cryosectioned and covered with a matrix for MALDI-MSI analysis. The sample was measured in a raster process in the mass spectrometer, resulting in a spatially resolved mass spectra. The detected molecules were visualized as a color intensity map (m/z 0%-100%). Histological staining of the sample was then performed. Histological staining and the MALDI-MSI measurements of the same sample were co-registered.

[1] = test system: subjects with lupus nephritis; test: 24-hour urinary electrolyte excretion concentrations in the lupus nephritis trial; type: in vivo, human; details: for Potassium urinary excretion concentration, change from baseline, mean ± SEM / Sodium urinary excretion concentration, change from baseline, mean ± SEM: baseline to one year, 24-hour urine
From the text: Twenty-four-hour urine samples from 60 patients in each treatment arm were selected for urinary analysis of electrolytes. […] The mean change from baseline to one year in magnesium, potassium and sodium were presented as 24-hour urinary excretion concentrations.

LN [2] = test: Low dosage protocol: clinical studies similar to Example 1, dosage reduced to 15.8 or 7.9 mg BID; type: in vivo, human
LN [3] = test: 48 week study of LN treatment: voclosporin plus MMF and oral corticosteroids, with pharmacodynamic (eGFR-guided) dosing; type: in vivo, human; details: for Patients with CR at 24 weeks / Patients with CR at 48 weeks / Patients with PR at 24 weeks / Patients with PR at 48 weeks: patients with no dose reduction
Method: The study was conducted over a period of 48 weeks and safety was evaluated at 24 weeks.
Subjects were assessed after 24 weeks and 48 weeks as well as a subsequent evaluation at 50 weeks.
PR is a composite end-point that includes safety and efficacy: UPCR reduction of 50% from baseline and no use of rescue medication.
To determine the efficacy of the pharmacodynamics protocol wherein dosage is reduced or stopped according to the presence or absence of indicators of the decrease in eGFR experienced as a side effect, these three groups of patients were assessed after 24 weeks and 48 weeks of treatment in consideration of whether treatment was altered according to the invention protocol.
PR is defined as UPCR reduction of 50% from baseline and no use of rescue medication.

[4] = test system: patients with lupus nephritis; details: patients treated with voclosporin; cited from earlier work
subjects with LN = test: Pooled Phase 2 and Phase 3 lupus nephritis studies: fasting lipid profile; type: in vivo, human
Method: (§1) All patients were concurrently administered mycophenolate mofetil (MMF) (target 1 g BID) and rapidly-tapered, low-dose steroids.
Fasting total cholesterol, low-density lipoprotein cholesterol (LDL), high-density lipoprotein cholesterol (HDL), and triglycerides were measured at baseline and at a one year follow-up in a central, CLIA-certified laboratory.

[5] = test system: subjects with active lupus nephritis; test: Double-blind randomized controlled trial in active lupus nephritis: complete renal response; type: in vivo, human; details: at one year
[6] = test system: subjects with lupus nephritis; test: Long-term continuation study: adverse events; type: in vivo, human
[7] = test system: subjects with lupus nephritis; test: Long-term continuation study: eGFR, UPCR, oral steroid dose; type: in vivo, human; details: for Corrected eGFR, mean / UPCR, mean: N = 116
[8] = test system: subjects with biopsy-proven active lupus nephritis; test: Pooled Phase 2 and Phase 3 lupus nephritis studies: complete renal response rate; type: in vivo, human; details: pooled data
From the text: as §1

[9] = any subgroup, either treatment arm, one year
[10] = High Dose 39.5 mg BID, 24 weeks, n=88
[11] = High Dose 39.5 mg BID, 48 weeks, n=88
[12] = High Dose 39.5 mg BID, patients with dose reductions (pharmacodynamically dosed)
[13] = Low Dose 23.7 mg BID, 48 weeks, n=89
[14] = Low Dose 23.7 mg BID, patients with dose reductions (pharmacodynamically dosed)
[15] = low dosage 23.7 mg BID + MMF + corticosteroids, whole group
[16] = change from baseline to one year

## C=C/C=C/C[C@@H](C)[C@@H](O)[C@H]1C(=O)N[C@@H](CC)C(=O)N(C)CC(=O)N(C)[C@@H](CC(C)C)C(=O)N[C@@H](C(C)C)C(=O)N(C)[C@@H](CC(C)C)C(=O)N[C@@H](C)C(=O)N[C@H](C)C(=O)N(C)[C@@H](CC(C)C)C(=O)N(C)[C@@H](CC(C)C)C(=O)N(C)[C@@H](C(C)C)C(=O)N1C [voclosporin]
Mouse kidney
  distribution, accumulation and intensity in the kidney (MALDI-MSI): relatively weak throughout the kidney, particularly in the cortex; also recorded: do not accumulate at high concentrations in the kidney
[1]; Non-responders, n = 32
  Potassium urinary excretion concentration, change from baseline, mean ± SEM: -2.48 ± 4.806 mmol/L
  Sodium urinary excretion concentration, change from baseline, mean ± SEM: -23.0 ± 12.69 mmol/L
[1]; Responders, n = 28
  Potassium urinary excretion concentration, change from baseline, mean ± SEM: -6.38 ± 24.0 mmol/L
  Sodium urinary excretion concentration, change from baseline, mean ± SEM: -27.6 ± 109 mmol/L
[1]; all subgroups except responders in the control arm, one year
  Decrease from baseline in urinary sodium excretion concentration: < 30.5 mmol/L
[1]; [9]
  Mean changes from baseline in urinary magnesium excretion concentration (magnitude): < 13.4 mg/dL
  Mean changes from baseline in urinary potassium excretion concentration (magnitude): < 6.4 mmol/L
[1]; at the studied dose, regardless of response to treatment
  changes from baseline in urinary electrolyte excretion concentrations of magnesium, potassium, and sodium: not clinically meaningful
[1]; eGFR decrease cohort, n = 28
  Potassium urinary excretion concentration, change from baseline, mean ± SEM: -4.58 ± 4.648 mmol/L
  Sodium urinary excretion concentration, change from baseline, mean ± SEM: -30.5 ± 11.92 mmol/L
LN [2]; dosage lowered to 7.9 mg BID quite early in the treatment
  complete or partial remission at reduced dosage: Substantial numbers of subjects showed complete or partial remission
LN [2]; dosage reduced almost immediately to 15.8 mg BID
  remission at reduced dosage: a substantial portion of subjects showed substantial remission
LN [3]; [10]
  Patients with Dose Reduction: 47 (53.4) n(%)
  Patients with no Dose Reduction: 41 (46.6) n(%)
LN [3]; [11]
  Patients with Dose Reduction: 53 (60.2) n(%)
  Patients with no Dose Reduction: 35 (39.8) n(%)
LN [3]; [12]
  Patients with CR at 24 weeks, percent: (27.7) %
  Patients with CR at 48 weeks, percent: (45.3) %
  Patients with PR at 24 weeks, number: 34 n
  Patients with PR at 24 weeks, percent: (72.3) %
  Patients with PR at 48 weeks, percent: (77.4) %
LN [3]; High Dose 39.5 mg BID
  Patients with CR at 24 weeks: 11 (26.8) n(%)
  Patients with CR at 48 weeks: 11 (31.4) n(%)
  Patients with PR at 24 weeks: 24 (58.5) n(%)
  Patients with PR at 48 weeks: 22 (62.9) n(%)
LN [3]; Low Dose 23.7 mg BID, 24 weeks, n=89
  Patients with no Dose Reduction: 50 (56.2) n(%)
LN [3]; [13]
  Patients with Dose Reduction: 46 (51.7) n(%)
  Patients with no Dose Reduction: 43 (48.3) n(%)
LN [3]; [14]
  Patients with CR at 24 weeks, percent: (35.9) %
  Patients with CR at 48 weeks, percent: (52.2) %
  Patients with PR at 24 weeks, percent: (71.8) %
  Patients with PR at 48 weeks, number: 35 n
  Patients with PR at 48 weeks, percent: (76.1) %
LN [3]; Low Dose 23.7 mg BID
  Patients with CR at 24 weeks: 15 (30.0) n(%)
  Patients with CR at 48 weeks: 20 (46.5) n(%)
  Patients with PR at 24 weeks: 34 (68.0) n(%)
  Patients with PR at 48 weeks: 26 (60.5) n(%)
LN [3]; [15]
  patients showing CR at 24 weeks: 32.6%
  patients showing PR at 24 weeks: 70%
[4]
  Mean serum electrolyte concentrations: within normal ranges
Subjects with LN; 23.7 mg BID arm
  HDL cholesterol, Change from Baseline to One Year, mean: -5.9 mg/dL
  LDL cholesterol, Change from Baseline to One Year, mean: -57.4 mg/dL
  Total cholesterol, Change from Baseline to One Year, mean: -82.6 mg/dL
  Triglycerides, Change from Baseline to One Year, mean: -74.1 mg/dL
Subjects with LN; Baseline, 23.7 mg BID arm, normal range 50 to 130
  LDL cholesterol, observed, mean: 174.0 mg/dL
Subjects with LN; Baseline, 23.7 mg BID arm, normal range 50 to 150
  Triglycerides, observed, mean: 239.6 mg/dL
Subjects with LN; Baseline, 23.7 mg BID arm, normal range 100 to 200
  Total cholesterol, observed, mean: 288.8 mg/dL
Subjects with LN; One Year, 23.7 mg BID arm
  LDL cholesterol, observed, mean: 114.3 mg/dL
  Total cholesterol, observed, mean: 196.6 mg/dL
  Triglycerides, observed, mean: 148.4 mg/dL
Subjects with LN; at baseline
  percentage of subjects with normal triglycerides: 32.3%
Subjects with LN; at one year
  percentage of subjects with normal triglycerides: 56.1%
Subjects with LN; baseline to one year
  increase in percentage of patients with total cholesterol in the normal range: about 42%
  increase in percentage with normal LDL: about 42%
Subjects with LN; [16]
  HDL cholesterol, LS Mean Difference Voclosporin vs Control: -0.6 mg/dL
  LDL cholesterol, LS Mean Difference Voclosporin vs Control: -10.3 mg/dL
  Total cholesterol, LS Mean Difference Voclosporin vs Control: -15.1 mg/dL
  Triglycerides, LS Mean Difference Voclosporin vs Control: -15.9 mg/dL
Subjects with LN; within the normal range at baseline, both arms
  Mean HDL levels over the study: remained stable throughout the study
[5]; 23.7 mg twice daily + MMF + low-dose steroids
  complete renal response rate: 40.8%
[5]; p<0.0001
  complete renal response, OR vs MMF and low-dose steroids only: 2.65
[6]; continuation study
  withdrawals: 12.9%
[6]; continuation study, four deaths in the active control group
  deaths in the treated group: no deaths
[6]; n = 116
  Adverse Event Leading to Voclosporin/Placebo Discontinuation: 10.3%
  Disease-Related Adverse Event: 51.7%
  Treatment-Related Adverse Event: 27.6%
  Treatment-Related Serious Adverse Event: 0.9%
[6]; n = 116, 23.7 mg twice daily + MMF + low-dose steroids
  Any Adverse Event: 88.8%
[6]; up to three years of treatment
  tolerability: well tolerated with no unexpected safety signals observed
[7]; Month 12, 23.7 mg twice daily + MMF + low-dose steroids
  Corrected eGFR, mean: 80.7 mL/min/1.73 m^2
[7]; Month 12
  UPCR, mean: 0.86 mg/mg
[7]; all time points during the three years
  mean UPCR versus control: lower
[7]; at 36 months
  increase from baseline eGFR, compared to the active control group: +2.7 mL/min
[7]; over 36 months, 116 subjects
  mean estimated glomerular filtration rate (eGFR) over time: stable over 36 months
[7]; pre-treatment Baseline
  Corrected eGFR, mean: 79.0 mL/min/1.73 m^2
  UPCR, mean: 3.941 mg/mg
[8]; one year of treatment, added to MMF and low-dose steroids
  complete renal response rate (CRR): 43.7%
[8]; one year, P<0.0001
  complete renal response, OR vs control: 2.76
